For assay [1], the system named is BL6 clone of B16 melanoma cell line. Put plainly: Lung colony formation after i.v. injection of BL6 cells preincubated with oligosaccharide. It counts as in vivo, C57/BL mice. The note with it: for total colony number reduced to % of control value: second independent series (Figure 1): preincubation with 0.1 M, 2 x 10^4 cells i.v., counted at 21 days; for reductions of metastatic colonies in lung: BL6 cells preincubated with the sugar, then intravenous injection, 0.1 M, 37°C, 10 minutes in the majority of experiments. How it is done: The highly metastatic BL6 clone of B16 melanoma cell line was obtained originally from Dr. Jean Starkey (Montana State Univ., Bozeman, MT), and clones were reselected in syngeneic C57/BL mice according to their metastatic potential. C57/BL mice were maintained in plastic cages under filtered air atmosphere and provided with water and food pellets ad lib. Cells were cultured in RPMI 1640 supplemented with 2 mM glutamine and 10% fetal calf serum (FCS), and detached with phosphate buffered saline (PBS) containing 2 mM EDTA. Viability was tested by trypan blue exclusion test.
A suspension of BL6 cells (1-3 x 10⁶ cells/ml RPMI 1640 medium) was prepared and aliquots were incubated in the presence or absence of various oligosaccharides at various concentrations, at 37°C for 5-10 minutes. Following incubation, typically, 3 x 10⁴ or 2 x 10⁴ cells (with or without oligosaccharide pretreatment) per 200 µl were injected via tail vein into 8-week-old female mice. After 18-21 days, mice were killed, lungs were fixed in 10% formaldehyde in PBS (pH 7.4), and tumor cell colonies were counted under a dissecting microscope, thus providing background values of metastatic melanoma colony number in lung under these conditions. Data on number and size of colonies were statistically treated by the analysis of variance (ANOVA) procedure. Colonies with a diameter of 1 mm or greater were considered large-size and those with a diameter less than 1 mm were considered small-size.
(§1) For one experiment, BL6 cells were incubated with various concentrations of lactose, lacto-N-tetrose (Galβ1→3GlcNAcβl→3Galβ1→4GLc), methyl β-D-lactoside, or phenyl β-D-thiolactoside for various durations. In the majority of experiments, a concentration of 0.1 M was used and cells were incubated at 37°C for 10 minutes, separated from sugar-containing medium by mild centrifugation at 400 x g for 10 minutes, resuspended in RPMI 1640, and injected (3 x 10⁴ cells in 0.2 ml suspension) via tail vein. For some experiments, 2 x 10⁴ cells were injected and colonies were counted at 21 days. Viability and cell growth ability of BL6 cells after incubation in various sugar solutions were tested by trypan blue exclusion test, and by plating in RPMI 1640 culture under normal conditions in vitro, as well as by subcutaneous inoculation in age-matched C57/BL mice in order to test tumor growth.

Another assay deals with BL6 cells. In words: In vitro cell growth and thymidine incorporation after incubation with sugar. Format: cell-based, mouse. How it is done:
as §1
On the technique in general: Dividing cells build labelled thymidine or BrdU into new DNA.

A further assay deals with B16 melanoma cells. In words: Lung colony formation, oligosaccharide injected i.p. before i.v. inoculation of tumor cells. The note with it: 1 ml of 0.25 M or 0.5 M i.p., 10 minutes before i.v. B16 melanoma cells; colonies counted 19 days later (Figure 2). It counts as in vivo, C57/BL mice. The procedure: Figure 2 graphically illustrates the effect of prior administration of methyl β-D-lactoside on the number and size of lung colony deposits of BL6 cells. Methyl β-D-lactoside (1 ml dosage) was injected intraperitoneally into C57/BL mice. After 10 minutes, B16 melanoma cells were injected intravenously. Lung colonies were counted and sized at 19 days. Group A represents control animals (not administered methyl β-D-lactoside) and groups B and C represent animals injected with 0.25 M and 0.5 M methyl β-D-lactoside, respectively. For each group, column 1 represents the total number of colonies, column 2 the number of colonies with diameter > 1 mm, and column 3 the number of colonies with diameter < 1 mm. Number of experiments is expressed as "n".
In a separate experiment, the effect of methyl β-D-lactoside on melanoma cell metastasis was determined after administration of the oligosaccharide, followed by inoculation with tumor cells. Specifically, a one ml dosage of methyl β-D-lactoside (at a concentration of 0.25 M or 0.5 M) was injected intraperitoneally in mice. After 10 minutes, B16 melanoma cells were injected intravenously. Lung colonies were counted 19 days later.

For assay [2], the system named is melanoma cell (BL6) adhesion on endothelial cells (HuVEC). In words: Melanoma cell adhesion on endothelial cells. Format: cell-based, mouse. The conditions noted are these: Figure 5. From the text: (§2) Figure 5 graphically illustrates the melanoma cell (BL6) adhesion on LacCer (Panel A) and on endothelial cells (HuVEC) (Panel B) are inhibited by LacCer and GM3.
GM3 interacts with LacCer, which is highly expressed on endothelial cells. The order of adhesion of the B16 variants onto LacCer-coated solid phase or onto endothelial cells was also in the same order as their metastatic potential. In contrast, integrin-dependent adhesion of the B16 variants was approximately equal for BL6, F10, and F1 (see Figure 4).

Another assay deals with T1, GMP-140 (Homo sapiens, UniProt P16109).
T1 sequence (P16109 42-830): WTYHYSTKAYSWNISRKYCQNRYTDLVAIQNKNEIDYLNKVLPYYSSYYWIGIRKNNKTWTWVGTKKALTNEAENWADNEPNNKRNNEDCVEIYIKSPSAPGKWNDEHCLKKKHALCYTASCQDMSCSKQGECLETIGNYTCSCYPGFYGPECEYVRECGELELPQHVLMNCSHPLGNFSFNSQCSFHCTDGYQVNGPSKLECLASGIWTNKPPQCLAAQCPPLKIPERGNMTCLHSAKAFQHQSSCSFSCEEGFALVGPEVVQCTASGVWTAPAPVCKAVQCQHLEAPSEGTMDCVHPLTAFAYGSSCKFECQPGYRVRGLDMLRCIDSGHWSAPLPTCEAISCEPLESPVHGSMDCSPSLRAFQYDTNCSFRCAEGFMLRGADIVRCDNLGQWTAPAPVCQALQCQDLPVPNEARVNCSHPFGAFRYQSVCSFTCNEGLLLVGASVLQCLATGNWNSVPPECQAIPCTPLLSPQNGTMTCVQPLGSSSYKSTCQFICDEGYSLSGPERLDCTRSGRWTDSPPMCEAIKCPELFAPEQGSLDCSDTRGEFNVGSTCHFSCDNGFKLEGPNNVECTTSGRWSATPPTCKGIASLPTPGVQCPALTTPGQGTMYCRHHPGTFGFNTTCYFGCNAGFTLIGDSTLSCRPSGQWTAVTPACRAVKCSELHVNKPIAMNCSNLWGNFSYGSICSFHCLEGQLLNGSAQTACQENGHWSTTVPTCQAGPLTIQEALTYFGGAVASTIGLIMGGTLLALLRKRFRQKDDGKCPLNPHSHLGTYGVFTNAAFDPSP
Put plainly: Binding of platelets to fluorescent polystyrene beads coated with GSL (flow cytometry). The conditions noted are these: for Binding index, Ratio (Activated/ Non-activated): ratio of binding index of activated to non-activated platelets; for Binding index, Activated platelets: thrombin-activated platelets, GSL-coated sulfate-containing polystyrene beads, MFI relative to non-GSL-coated beads, means of four experiments. The procedure:
Fluorescent plastic (e.g. polystyrene) beads (diameter ≈ 0.5 µm) are coated with GSL. GSLs are known to be strongly adsorbed on such beads, which allows construction of fluorescent probes containing specific GSLs. Platelets (activated or non-activated) are incubated with such GSL-coated beads, followed by determination of platelet fluorescence intensity by flow cytometry.
Platelets were isolated from"platelet-rich plasma"obtained from the Oregon Red Cross (Portland, OR), and contaminating red blood cells were removed by centrifugation at 80xg for 10 min. Platelets were centrifuged at 300xg for 10 min, and suspended in Tyrode's buffer (pH 6.5) containing 22 mM citrate buffer with 0.35% bovine serum albumin (BSA). Platelet suspension (1x10⁸/ml) was incubated (pH 7.2, 37°C, 5 min) after addition of thrombin (final concentration 1 U/ml). The mixture was then incubated at 37°C for 10 min without stirring. Thrombin-activated platelets were fixed with an equal volume of 2% formaldehyde in phosphate-buffered saline (PBS), pH 7.2, and washed 2x with PBS containing 1% BSA.
Activated and non-activated platelets were fixed with paraformaldehyde in Ca²⁺-free PBS, pH 7.2, washed 2x with Ca^2a+-containing PBS with 1% BSA, resuspended in CA^2a+-PBS with 1% BSA and 0.1% azide, and the number of platelets adjusted to ≈1x10⁹/ml. The cell suspension was stored at 4°C and the binding assay performed within 24 hr.
Fluorescent polystyrene latex beads were obtained from Molecular Probe, Inc., Eugene, OR. They were yellow-green fluorescent beads with a sulfate group at the surface, diameter ≈0.5 µm (actually 0.486 µm). 1x10⁹ beads in 30 µl ETOH were added to 10 µg of GSL solution in 200 µl C=M, mixed well, and dried under an N₂ stream. The residue was resuspended in 200 µl ethanol, sonicated briefly, and dried under an N₂ stream. […]
20 µl of platelet (non-activated or activated) suspension ... paraformaldehyde-fixed -- containing ≈2x10⁷ platelets was mixed with 10 µl of fluorescent GSL-coated beads -- containing ≈2x10⁷ beads, mixed well, […] allowed to stand at 37°C for 30 min. The platelet suspension was mixed with 200 µl Ca²⁺-PBS and analyzed by flow cytometry (EPICS Profile, Coulter Cytometry, Hialeath, FL).
Flow cytometric analyses of platelets alone and beads alone were performed for a gating set to include most signals produced by platelets by excluding signals produced by free beads. The binding index (BI) was calculated as mean fluorescence intensity (MFI) of platelets incubated with fluorescent GSL-coated beads, divided by MFI of platelets incubated with fluorescent non-GSL-coated (control) beads. […]
Background: In flow cytometry, cells or beads pass a laser one at a time.

For assay [3], the system named is melanoma cell (BL6) adhesion on LacCer. Put plainly: Melanoma cell adhesion on LacCer-coated solid phase. It counts as cell-based, mouse. The conditions noted are these: Figure 5, Panel A.
From the text: Figure 4 graphically illustrates that melanoma cell adhesion on LacCer is based on GM3-LacCer interaction. The order of metastatic potential is BL6>F10>F1>>WA4.
as §2

For `CO[C@@H]1O[C@H](CO)[C@@H](O[C@@H]2O[C@H](CO)[C@H](O)[C@H](O)[C@H]2O)[C@H](O)[C@H]1O` [methyl β-D-lactoside], the “reduction of metastatic lung colony number compared to control” value in assay [1] (BL6 cells treated with 0.005 M) stood at 8%; in assay [1] (BL6 cells treated with 0.01 M) it was 16%; in assay [1] (BL6 cells treated with 0.1 M), 43%. For the same molecule, in assay [1], the “total colony number reduced to % of control value” stood at 35%. Moreover, the “effect on cell number increase” value in the assay on BL6 cells is “slight in vitro stimulatory effect”. Further, in the assay on BL6 cells, the “effect on thymidine incorporation” value is given as “slight in vitro stimulatory effect”. Further, the “lung metastatic colony formation” value in the assay with B16 melanoma cells is recorded as “significant reduction”. Besides, the “B16 melanoma adhesion on endothelial cells” value in assay [2] is recorded as “inhibited”.

Regarding `OC[C@H]1O[C@@H](O[C@H]2[C@H](O)[C@@H](O)[C@H](Sc3ccccc3)O[C@@H]2CO)[C@H](O)[C@@H](O)[C@H]1O` [phenyl β-D-thiolactoside], the “total colony number reduced to % of control value” in assay [1] was 50%. Further, in the assay with BL6 cells, the “effect on cell number increase” value is reported as “slight in vitro stimulatory effect” and the “effect on thymidine incorporation” value is “slight in vitro stimulatory effect”.

As for `CC(=O)N[C@H]1[C@H](O[C@H]2[C@@H](O)[C@@H](CO)O[C@@H](O[C@H]3[C@H](O)[C@@H](O)C(O)O[C@@H]3CO)[C@@H]2O)O[C@H](CO)[C@@H](O)[C@@H]1O[C@@H]1O[C@H](CO)[C@H](O)[C@H](O)[C@H]1O` (stereo partly drawn) [lacto-N-tetrose, Galβ1→3GlcNAcβl→3Galβl→4Glc], in assay [1], the “reductions of metastatic colonies in lung” value was 36%.

In the case of “NeuAcα2→3Galβ1→4GlcNAcβ1→3Galβ1→R [SPG, reference compound]”, on GMP-140, the “Binding index, Ratio (Activated/ Non-activated)” value was 0.7 ± 0.2 and the “Binding index, Activated platelets” value amounted to 0.8 ± 0.2.

For the molecule `OC[C@H]1O[C@@H](O[C@H]2[C@H](O)[C@@H](O)C(O)O[C@@H]2CO)[C@H](O)[C@@H](O)[C@H]1O` (stereo partly drawn) [Lactose], the “reductions of metastatic colonies in lung” value in assay [1] turned out to be 26%.

Regarding NeuAcα2→3Galβl→4Glcβl→Cer [GM3], the “melanoma cell (BL6) adhesion on LacCer” value in assay [3] is given as “inhibited”. For the same molecule, at GMP-140, the “Binding index, Ratio (Activated/ Non-activated)” value turned out to be 0.7 ± 0.5 and the “Binding index, Activated platelets” value is recorded as 1.0 ± 0.1.

The record behind these values is patent publication EP0521692A2, “Inhibition of tumor cell metastasis potential and invasiveness by chemically-defined oligosaccharides, their derivatives, mimetics and antibodies directed to them” (The Biomembrane Institute, priority 1991, dated 1993).
